Test [1] relates to A549. Nature of the test: Cytotoxicity against human A549 cells after 72 hrs by MTT assay. Particulars: A549, 72 h. In general terms: Formazan colour is commonly taken as a measure of viable cells.
In test [2] the test system is HepG2. Nature of the test: cells. To be noted: Homo sapiens, HepG2, 72 h.
Description: Cytotoxicity against human HepG2 cells after 72 hrs by MTT assay
Test [3] relates to MCF7. The experiment in a line: cells. To be noted: Homo sapiens, MCF7, 72 h.
Description: Cytotoxicity against human MCF7 cells after 72 hrs by MTT assay
Test [4] deals with Hepatocyte growth factor receptor (Homo sapiens, UniProt P08581). Nature of the test: Inhibition of c-Met (unknown origin) using FAM-labeled peptide substrate after 10 mins by mobility shift assay.

The source of these data is ChEMBL document CHEMBL4184177, “Synthesis and bioevaluation study of novel N-methylpicolinamide and thienopyrimidine derivatives as selectivity c-Met kinase inhibitors” (Bioorg Med Chem, 2018).

What is called IC50 is the concentration that inhibits the measured activity by half.

Bounds are passed on as bounds.

Sequence of Hepatocyte growth factor receptor (P08581 whole entry): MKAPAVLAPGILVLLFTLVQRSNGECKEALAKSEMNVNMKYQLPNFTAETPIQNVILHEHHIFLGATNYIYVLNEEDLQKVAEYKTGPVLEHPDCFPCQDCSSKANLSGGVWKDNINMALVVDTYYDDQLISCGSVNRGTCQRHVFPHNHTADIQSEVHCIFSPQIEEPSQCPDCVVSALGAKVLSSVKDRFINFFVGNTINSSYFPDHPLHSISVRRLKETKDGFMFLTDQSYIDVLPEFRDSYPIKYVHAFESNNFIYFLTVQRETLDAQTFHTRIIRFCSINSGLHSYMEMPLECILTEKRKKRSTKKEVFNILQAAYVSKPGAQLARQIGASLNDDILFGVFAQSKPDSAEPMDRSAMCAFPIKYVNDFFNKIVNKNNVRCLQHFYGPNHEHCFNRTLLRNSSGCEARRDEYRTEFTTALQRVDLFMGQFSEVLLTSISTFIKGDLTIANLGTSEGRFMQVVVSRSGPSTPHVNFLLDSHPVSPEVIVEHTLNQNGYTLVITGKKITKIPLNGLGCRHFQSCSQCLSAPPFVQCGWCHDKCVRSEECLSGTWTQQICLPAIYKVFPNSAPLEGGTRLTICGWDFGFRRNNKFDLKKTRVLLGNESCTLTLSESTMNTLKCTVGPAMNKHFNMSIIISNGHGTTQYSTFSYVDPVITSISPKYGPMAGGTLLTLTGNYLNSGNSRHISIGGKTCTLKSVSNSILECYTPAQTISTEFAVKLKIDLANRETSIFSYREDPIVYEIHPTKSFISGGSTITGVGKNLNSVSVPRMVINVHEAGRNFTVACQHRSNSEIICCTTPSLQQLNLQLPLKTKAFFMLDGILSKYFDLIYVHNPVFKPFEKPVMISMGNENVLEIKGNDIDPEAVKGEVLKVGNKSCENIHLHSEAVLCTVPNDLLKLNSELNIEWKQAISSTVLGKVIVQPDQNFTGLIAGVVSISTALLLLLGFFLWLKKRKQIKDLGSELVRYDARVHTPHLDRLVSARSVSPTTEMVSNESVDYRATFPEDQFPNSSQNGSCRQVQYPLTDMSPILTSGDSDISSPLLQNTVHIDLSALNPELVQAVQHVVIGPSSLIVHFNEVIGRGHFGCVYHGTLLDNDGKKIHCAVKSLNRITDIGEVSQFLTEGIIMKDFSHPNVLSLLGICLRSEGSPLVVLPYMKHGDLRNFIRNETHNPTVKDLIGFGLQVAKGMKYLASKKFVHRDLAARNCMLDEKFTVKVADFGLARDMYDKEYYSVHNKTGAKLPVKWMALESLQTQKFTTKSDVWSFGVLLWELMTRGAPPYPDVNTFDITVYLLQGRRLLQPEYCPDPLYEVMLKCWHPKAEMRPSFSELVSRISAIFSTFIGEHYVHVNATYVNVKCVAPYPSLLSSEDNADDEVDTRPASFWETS

For the compound `Cc1cc(=O)n(-c2ccccc2C(F)(F)F)nc1C(=O)Nc1ccc(Oc2ncnc3sccc23)c(F)c1`, the IC50 in test [1] worked out at 16.3 µM; in test [2], 14.7 µM; in test [3] it was 13.8 µM.
In the case of `Cc1ccc(-n2nc(C(=O)Nc3ccc(Oc4ncnc5ccsc45)c(F)c3)c(C)cc2=O)cc1`, the IC50 in test [1] came out at 5.89 µM; in test [2], 17.2 µM; in test [3] it was 7.25 µM.
For the compound `Cc1cc(=O)n(-c2ccccc2OC(F)(F)F)nc1C(=O)Nc1ccc(Oc2ncnc3sccc23)c(F)c1`, the IC50 in test [1], in test [2] and in test [3] was greater than 40 µM in each case.
Turning to `O=C(Nc1ccc(Oc2ncnc3ccsc23)c(F)c1)c1nn(-c2ccc(Br)cc2)ccc1=O`, the values for the IC50 in test [1], in test [2] and in test [3] were 7.84 µM, 10.7 µM and 9.62 µM, respectively.
As for `CNC(=O)c1cc(Oc2ccc(NC(=O)c3nn(-c4ccccc4OC(F)(F)F)c(=O)cc3C)cc2F)ccn1`, the IC50 in test [1], in test [2] and in test [3] was greater than 40 µM in each case.
For the compound `Cc1ccc(-n2nc(C(=O)Nc3ccc(Oc4ncnc5ccsc45)cc3)c(C)cc2=O)c(C)c1`, the IC50 in test [1] stood at 16.4 µM; in test [2] it was 17.9 µM; in test [3] it was 11.9 µM.
Consider `Cc1ccc(-n2ccc(=O)c(C(=O)Nc3ccc(Oc4ncnc5ccsc45)c(F)c3)n2)cc1`, for which the results for the IC50 in test [1], in test [2] and in test [3] were 11.6 µM, 24.2 µM and 23.2 µM, respectively.
Turning to `CNC(=O)c1cc(Oc2ccc(NC(=O)c3nn(-c4cccc(F)c4)c(=O)cc3C)cc2F)ccn1`, the IC50 was determined as 9.54 µM in test [1], 10.2 µM in test [2] and 6.41 µM in test [3].
With `Cc1cc(=O)n(-c2ccc(F)cc2)nc1C(=O)Nc1ccc(Oc2ncnc3ccsc23)cc1`, the IC50 in test [1] came out at 2.36 µM; in test [4], 0.048 µM; in test [2], 2.11 µM; in test [3], 4.4 µM.
For the compound `Cc1cc(=O)n(-c2ccccc2OC(F)(F)F)nc1C(=O)Nc1ccc(Oc2ncnc3ccsc23)c(F)c1`, the values for the IC50 in test [1], in test [2] and in test [3] were 5.72 µM, 15.7 µM and 11.5 µM, respectively.
On the same counts, the results for `Cc1cc(=O)n(-c2ccc(F)cc2)nc1C(=O)Nc1ccc(Oc2ncnc3sccc23)c(F)c1` are 2.62 µM, 12.5 µM and 12.3 µM.
In the same order, the values of `Cc1cc(=O)n(-c2ccccc2C(F)(F)F)nc1C(=O)Nc1ccc(Oc2ncnc3ccsc23)cc1` are 8.85 µM, 9.23 µM and 5.55 µM.
Regarding `Cc1ccc(-n2nc(C(=O)Nc3ccc(Oc4ncnc5ccsc45)cc3)c(C)cc2=O)cc1`, the IC50 in test [1] was 11.5 µM; in test [2], 25 µM; in test [3], 23.8 µM.
On the same counts, the results for `Cc1cc(=O)n(-c2ccc(Br)cc2F)nc1C(=O)Nc1ccc(Oc2ncnc3sccc23)c(F)c1` are 11.5 µM, 13.8 µM and 13.2 µM.
In the case of `CNC(=O)c1cc(Oc2ccc(NC(=O)c3nn(-c4ccccc4F)c(=O)cc3C)cc2F)ccn1`, the 50% inhibitory concentration (IC50) in test [1], in test [2] and in test [3] was greater than 40 µM in each case.
For the compound `Cc1cc(=O)n(-c2ccc(F)c(F)c2)nc1C(=O)Nc1ccc(Oc2ncnc3sccc23)c(F)c1`, the IC50 in test [1] is 15.7 µM; in test [2] it was greater than 40 µM; in test [3], 20.6 µM.
Regarding `Cc1cc(=O)n(-c2ccccc2C(F)(F)F)nc1C(=O)Nc1ccc(Oc2ncnc3ccsc23)c(F)c1`, the IC50 was 4.68 µM in test [1], 9.38 µM in test [2] and 6.02 µM in test [3].
Take `Cc1cc(=O)n(-c2ccc(F)c(F)c2)nc1C(=O)Nc1ccc(Oc2ncnc3sccc23)cc1`: the values for the IC50 in test [1], in test [2] and in test [3] were 13.5 µM, 16.8 µM and 16.1 µM, respectively.
In the case of `Cc1ccc(-n2nc(C(=O)Nc3ccc(Oc4ncnc5sccc45)c(F)c3)c(C)cc2=O)cc1`, the IC50 in test [1], in test [2] and in test [3] was greater than 40 µM each time.
Regarding `Cc1cc(=O)n(-c2ccccc2OC(F)(F)F)nc1C(=O)Nc1ccc(Oc2ncnc3sccc23)cc1`, the half-maximal inhibitory concentration (IC50) came out at 15.5 µM in test [1], 14.4 µM in test [2] and 11 µM in test [3].
In the same order, the values of `Cc1cc(=O)n(-c2cccc(F)c2)nc1C(=O)Nc1ccc(Oc2ncnc3ccsc23)c(F)c1` are 5.22 µM, 7.81 µM and 9.05 µM.
Turning to `O=C(Nc1ccc(Oc2ncnc3ccsc23)c(F)c1)c1nn(-c2ccccc2)ccc1=O`, the IC50 in test [1] is 19.7 µM; in test [2] it was 13.5 µM; in test [3] it was 12.4 µM.
On the same counts, the results for `Cc1cc(=O)n(-c2ccc(F)c(F)c2)nc1C(=O)Nc1ccc(Oc2ncnc3ccsc23)cc1` are 8.18 µM, 9.23 µM and 5.55 µM.
For the compound `CNC(=O)c1cc(Oc2ccc(NC(=O)c3nn(-c4ccc(Br)cc4F)c(=O)cc3C)cc2F)ccn1`, the IC50 in test [1] is 7.93 µM; in test [2] it was 2.83 µM; in test [3], 9.36 µM.
As for `CNC(=O)c1cc(Oc2ccc(NC(=O)c3nn(-c4ccc(C)cc4)c(=O)cc3C)cc2F)ccn1`, the IC50 was 11.5 µM in test [1], 10.6 µM in test [2] and 8.38 µM in test [3].
On the same counts, the results for `Cc1cc(=O)n(-c2cccc(F)c2)nc1C(=O)Nc1ccc(Oc2ncnc3sccc23)c(F)c1` are 19.5 µM, 24.4 µM and 17.3 µM.
On the same counts, the results for `CNC(=O)c1cc(Oc2ccc(NC(=O)c3nn(-c4ccccc4C(F)(F)F)c(=O)cc3C)cc2F)ccn1` are greater than 40 µM, greater than 40 µM and 35.7 µM.
In the case of `Cc1cc(=O)n(-c2ccc(Br)cc2F)nc1C(=O)Nc1ccc(Oc2ncnc3sccc23)cc1`, the IC50 was found to be 12.8 µM in test [1], 6.3 µM in test [2] and 15.2 µM in test [3].
With `Cc1cc(=O)n(-c2ccc(F)cc2)nc1C(=O)Nc1ccc(Oc2ncnc3sccc23)cc1`, the IC50 turned out to be 7.05 µM in test [1], 6.46 µM in test [2] and 21 µM in test [3].
`Cc1cc(=O)n(-c2ccc(F)c(F)c2)nc1C(=O)Nc1ccc(Oc2ncnc3ccsc23)c(F)c1`: the IC50 in test [1] stood at 4.59 µM; in test [2], 6.93 µM; in test [3], 6.9 µM.
On to `Cc1cc(=O)n(-c2ccc(Br)cc2F)nc1C(=O)Nc1ccc(Oc2ncnc3ccsc23)c(F)c1`, for which the IC50 stood at 2.98 µM in test [1], 0.032 µM in test [4], 3.35 µM in test [2] and 1.55 µM in test [3].
Consider `Cc1ccc(-n2nc(C(=O)Nc3ccc(Oc4ncnc5sccc45)cc3)c(C)cc2=O)cc1`, for which the IC50 in test [1], in test [2] and in test [3] was greater than 40 µM in each case.
On to `Cc1cc(=O)n(-c2cccc(F)c2)nc1C(=O)Nc1ccc(Oc2ncnc3sccc23)cc1`, for which the figures for the IC50 in test [1], in test [2] and in test [3] were 16.4 µM, 18.5 µM and 27.2 µM, respectively.
With `Cc1cc(=O)n(-c2ccc(Br)cc2F)nc1C(=O)Nc1ccc(Oc2ncnc3ccsc23)cc1`, the IC50 in test [1] turned out to be 7.93 µM; in test [2], 10.6 µM; in test [3], 9.36 µM.
On to `O=C(Nc1ccc(Oc2ncnc3ccsc23)c(F)c1)c1nn(-c2ccc(F)c(Cl)c2)ccc1=O`, for which the IC50 in test [1] is 9.65 µM; in test [2] it was 10.6 µM; in test [3], 6.63 µM.
Take `Cc1cc(=O)n(-c2ccccc2C(F)(F)F)nc1C(=O)Nc1ccc(Oc2ncnc3sccc23)cc1`: the IC50 in test [1] is 19.9 µM; in test [2] it was greater than 40 µM; in test [3], greater than 40 µM.
`Cc1cc(=O)n(-c2cccc(F)c2)nc1C(=O)Nc1ccc(Oc2ncnc3ccsc23)cc1`: the values for the IC50 in test [1], in test [2] and in test [3] were 9.54 µM, 10.2 µM and 6.41 µM, respectively.
For `Cc1cc(=O)n(-c2ccccc2OC(F)(F)F)nc1C(=O)Nc1ccc(Oc2ncnc3ccsc23)cc1`, the IC50 in test [1] was 10.1 µM; in test [2], 25 µM; in test [3] it was 23.8 µM.
In the same order, the values of `O=C(Nc1ccc(Oc2ncnc3ccsc23)c(F)c1)c1nn(-c2ccc(F)cc2)ccc1=O` are 8.23 µM, 9.16 µM and 5.72 µM.
